Reference: ChEMBL document CHEMBL4184177, “Synthesis and bioevaluation study of novel N-methylpicolinamide and thienopyrimidine derivatives as selectivity c-Met kinase inhibitors” (Bioorg Med Chem, 2018)
The source made the active and inactive calls. The calls are words filed in the database; no cut-off is given here.

Experiments:
[1] = system: A549; experiment: Cytotoxicity against human A549 cells after 72 hrs by MTT assay; conditions: A549, 72 h
[2] = system: HepG2; experiment: Potency index, ratio of foretinib IC50 to compound IC50 for human HepG2 cells; type: functional
[3] = system: MCF7; experiment: Potency index, ratio of foretinib IC50 to compound IC50 for human MCF7 cells; type: functional
[4] = target: Hepatocyte growth factor receptor (Homo sapiens, UniProt P08581); experiment: Inhibition of c-Met (unknown origin) using FAM-labeled peptide substrate after 10 mins by mobility shift assay
Hepatocyte growth factor receptor, sequence (P08581 whole entry): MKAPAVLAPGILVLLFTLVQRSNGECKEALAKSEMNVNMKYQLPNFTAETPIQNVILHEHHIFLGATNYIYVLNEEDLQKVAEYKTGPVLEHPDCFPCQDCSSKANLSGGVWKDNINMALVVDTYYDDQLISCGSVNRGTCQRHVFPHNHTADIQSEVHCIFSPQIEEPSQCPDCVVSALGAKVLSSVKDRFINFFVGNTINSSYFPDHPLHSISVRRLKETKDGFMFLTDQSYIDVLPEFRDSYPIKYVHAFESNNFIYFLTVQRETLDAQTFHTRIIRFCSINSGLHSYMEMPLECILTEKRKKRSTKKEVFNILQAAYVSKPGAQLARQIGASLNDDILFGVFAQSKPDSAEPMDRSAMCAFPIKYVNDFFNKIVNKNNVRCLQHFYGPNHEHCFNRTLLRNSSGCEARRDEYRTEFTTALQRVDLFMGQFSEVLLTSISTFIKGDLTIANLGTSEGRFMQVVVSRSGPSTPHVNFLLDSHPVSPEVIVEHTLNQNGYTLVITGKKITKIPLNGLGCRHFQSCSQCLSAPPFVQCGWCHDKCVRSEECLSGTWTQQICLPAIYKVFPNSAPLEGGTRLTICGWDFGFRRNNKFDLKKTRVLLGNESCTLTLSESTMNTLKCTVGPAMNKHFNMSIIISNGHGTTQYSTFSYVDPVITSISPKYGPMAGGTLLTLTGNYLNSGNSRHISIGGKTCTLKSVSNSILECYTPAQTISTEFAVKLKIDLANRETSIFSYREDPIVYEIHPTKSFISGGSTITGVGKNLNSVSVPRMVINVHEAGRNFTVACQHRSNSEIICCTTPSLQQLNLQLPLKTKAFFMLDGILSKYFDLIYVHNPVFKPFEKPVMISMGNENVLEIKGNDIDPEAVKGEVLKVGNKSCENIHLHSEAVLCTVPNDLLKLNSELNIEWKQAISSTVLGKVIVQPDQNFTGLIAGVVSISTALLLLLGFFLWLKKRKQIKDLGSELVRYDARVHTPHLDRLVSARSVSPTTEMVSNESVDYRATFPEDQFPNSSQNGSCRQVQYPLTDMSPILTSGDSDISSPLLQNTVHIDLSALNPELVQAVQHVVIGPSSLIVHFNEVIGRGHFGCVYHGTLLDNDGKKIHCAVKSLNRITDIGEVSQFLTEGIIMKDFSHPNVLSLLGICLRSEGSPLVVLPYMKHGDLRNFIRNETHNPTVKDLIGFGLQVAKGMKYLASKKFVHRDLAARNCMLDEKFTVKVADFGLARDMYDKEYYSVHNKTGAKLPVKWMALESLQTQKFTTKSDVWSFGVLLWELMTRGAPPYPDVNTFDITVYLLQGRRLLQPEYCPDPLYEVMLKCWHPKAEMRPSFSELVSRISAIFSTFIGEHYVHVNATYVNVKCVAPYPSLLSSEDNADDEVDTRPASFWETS

[5] = target: T1, Receptor-type tyrosine-protein kinase FLT3 (Homo sapiens, UniProt P36888); experiment: Inhibition of FLT3 (unknown origin) using FAM-labeled peptide substrate after 10 mins by mobility shift assay
T1 sequence (P36888 whole entry): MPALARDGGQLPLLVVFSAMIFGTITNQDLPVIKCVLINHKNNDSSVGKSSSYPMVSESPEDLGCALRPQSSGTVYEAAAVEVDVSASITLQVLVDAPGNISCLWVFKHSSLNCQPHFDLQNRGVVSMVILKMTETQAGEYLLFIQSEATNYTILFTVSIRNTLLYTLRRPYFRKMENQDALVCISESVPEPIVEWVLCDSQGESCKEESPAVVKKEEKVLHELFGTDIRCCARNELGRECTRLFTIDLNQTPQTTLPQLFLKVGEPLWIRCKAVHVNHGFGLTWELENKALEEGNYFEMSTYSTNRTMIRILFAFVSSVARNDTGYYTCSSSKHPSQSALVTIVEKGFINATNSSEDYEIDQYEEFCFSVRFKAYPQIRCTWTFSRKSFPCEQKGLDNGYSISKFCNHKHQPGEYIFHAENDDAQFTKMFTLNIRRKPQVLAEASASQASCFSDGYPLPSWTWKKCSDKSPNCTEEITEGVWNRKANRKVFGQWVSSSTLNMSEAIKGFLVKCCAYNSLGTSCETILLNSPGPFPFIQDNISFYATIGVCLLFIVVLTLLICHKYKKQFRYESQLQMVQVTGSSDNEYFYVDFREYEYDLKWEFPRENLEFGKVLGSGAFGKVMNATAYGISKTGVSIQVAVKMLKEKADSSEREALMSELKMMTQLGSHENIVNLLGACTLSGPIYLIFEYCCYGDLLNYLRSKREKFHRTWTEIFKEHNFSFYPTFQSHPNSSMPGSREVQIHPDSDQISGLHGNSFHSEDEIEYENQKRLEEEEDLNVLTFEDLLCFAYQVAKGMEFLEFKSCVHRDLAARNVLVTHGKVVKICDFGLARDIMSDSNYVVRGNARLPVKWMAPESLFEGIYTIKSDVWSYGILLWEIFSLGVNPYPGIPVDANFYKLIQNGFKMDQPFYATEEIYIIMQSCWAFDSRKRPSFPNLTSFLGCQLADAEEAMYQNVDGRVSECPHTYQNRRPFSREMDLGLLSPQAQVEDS

[6] = target: Vascular endothelial growth factor receptor 2 (Homo sapiens, UniProt P35968); experiment: Inhibition of VEGFR2 (unknown origin) using FAM-labeled peptide substrate after 10 mins by mobility shift assay
Vascular endothelial growth factor receptor 2, sequence (P35968 whole entry): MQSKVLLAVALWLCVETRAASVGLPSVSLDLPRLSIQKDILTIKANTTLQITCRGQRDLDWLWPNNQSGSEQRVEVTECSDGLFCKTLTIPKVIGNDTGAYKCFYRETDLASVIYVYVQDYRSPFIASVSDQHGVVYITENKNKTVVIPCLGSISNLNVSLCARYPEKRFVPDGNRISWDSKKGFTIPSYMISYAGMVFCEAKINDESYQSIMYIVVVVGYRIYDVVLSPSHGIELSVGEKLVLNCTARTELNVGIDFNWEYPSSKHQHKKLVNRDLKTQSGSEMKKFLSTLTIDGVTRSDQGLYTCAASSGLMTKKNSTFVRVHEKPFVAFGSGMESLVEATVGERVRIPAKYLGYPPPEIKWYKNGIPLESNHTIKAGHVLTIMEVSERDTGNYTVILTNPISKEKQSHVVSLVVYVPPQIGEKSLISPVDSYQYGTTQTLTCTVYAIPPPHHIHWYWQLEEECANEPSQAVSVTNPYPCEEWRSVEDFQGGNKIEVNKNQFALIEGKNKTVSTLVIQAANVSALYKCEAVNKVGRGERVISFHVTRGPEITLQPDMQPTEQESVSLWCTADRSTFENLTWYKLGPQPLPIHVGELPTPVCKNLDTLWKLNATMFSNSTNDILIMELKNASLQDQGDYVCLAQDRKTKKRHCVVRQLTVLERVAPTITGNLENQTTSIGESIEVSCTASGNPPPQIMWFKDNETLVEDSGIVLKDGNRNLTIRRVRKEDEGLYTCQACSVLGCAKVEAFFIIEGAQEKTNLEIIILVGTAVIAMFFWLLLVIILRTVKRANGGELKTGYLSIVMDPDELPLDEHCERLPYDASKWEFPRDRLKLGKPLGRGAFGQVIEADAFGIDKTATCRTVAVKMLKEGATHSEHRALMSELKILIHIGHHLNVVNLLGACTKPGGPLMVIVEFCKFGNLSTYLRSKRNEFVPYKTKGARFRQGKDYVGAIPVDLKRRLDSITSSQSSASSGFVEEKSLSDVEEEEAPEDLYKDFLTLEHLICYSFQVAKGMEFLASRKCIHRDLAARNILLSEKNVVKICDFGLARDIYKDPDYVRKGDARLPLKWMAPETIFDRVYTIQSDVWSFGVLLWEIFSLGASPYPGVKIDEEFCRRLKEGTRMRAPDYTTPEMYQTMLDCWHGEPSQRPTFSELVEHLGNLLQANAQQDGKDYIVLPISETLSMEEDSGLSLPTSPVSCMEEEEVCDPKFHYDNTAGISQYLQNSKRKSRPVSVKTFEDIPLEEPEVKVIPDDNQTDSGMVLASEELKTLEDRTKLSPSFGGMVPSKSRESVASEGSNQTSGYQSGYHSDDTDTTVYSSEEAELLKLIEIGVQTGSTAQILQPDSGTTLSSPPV

[7] = target: Mast/stem cell growth factor receptor Kit (Homo sapiens, UniProt P10721); experiment: Inhibition of c-Kit (unknown origin) using FAM-labeled peptide substrate after 10 mins by mobility shift assay
Mast/stem cell growth factor receptor Kit, sequence (P10721 whole entry): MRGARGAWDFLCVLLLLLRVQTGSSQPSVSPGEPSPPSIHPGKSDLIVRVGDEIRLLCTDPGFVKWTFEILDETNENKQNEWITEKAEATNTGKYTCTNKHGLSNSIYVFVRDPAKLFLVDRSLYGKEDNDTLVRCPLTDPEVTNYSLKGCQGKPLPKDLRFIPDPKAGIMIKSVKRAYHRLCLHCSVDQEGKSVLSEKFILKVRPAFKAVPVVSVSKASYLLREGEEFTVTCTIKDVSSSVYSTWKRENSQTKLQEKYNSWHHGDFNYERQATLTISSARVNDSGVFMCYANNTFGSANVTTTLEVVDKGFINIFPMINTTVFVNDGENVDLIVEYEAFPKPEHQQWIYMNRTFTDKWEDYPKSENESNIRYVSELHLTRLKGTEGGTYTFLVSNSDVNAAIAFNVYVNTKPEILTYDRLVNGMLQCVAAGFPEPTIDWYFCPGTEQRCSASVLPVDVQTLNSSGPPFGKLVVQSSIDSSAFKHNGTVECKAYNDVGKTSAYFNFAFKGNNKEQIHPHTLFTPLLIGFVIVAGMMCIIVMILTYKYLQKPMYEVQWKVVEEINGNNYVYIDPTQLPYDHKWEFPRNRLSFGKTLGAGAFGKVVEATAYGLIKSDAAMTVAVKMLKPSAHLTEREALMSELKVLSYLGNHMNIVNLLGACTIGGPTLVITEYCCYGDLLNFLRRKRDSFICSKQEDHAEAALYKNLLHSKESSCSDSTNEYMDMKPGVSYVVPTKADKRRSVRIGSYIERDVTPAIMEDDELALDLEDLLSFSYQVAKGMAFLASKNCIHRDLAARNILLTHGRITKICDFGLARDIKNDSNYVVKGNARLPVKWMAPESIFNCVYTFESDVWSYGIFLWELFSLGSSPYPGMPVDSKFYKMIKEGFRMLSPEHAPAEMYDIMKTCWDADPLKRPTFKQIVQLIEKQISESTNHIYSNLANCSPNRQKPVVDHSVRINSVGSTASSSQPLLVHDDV

[8] = target: Epidermal growth factor receptor (Homo sapiens, UniProt P00533); experiment: Inhibition of EGFR (unknown origin) using FAM-labeled peptide substrate after 10 mins by mobility shift assay
Epidermal growth factor receptor, sequence (P00533 whole entry): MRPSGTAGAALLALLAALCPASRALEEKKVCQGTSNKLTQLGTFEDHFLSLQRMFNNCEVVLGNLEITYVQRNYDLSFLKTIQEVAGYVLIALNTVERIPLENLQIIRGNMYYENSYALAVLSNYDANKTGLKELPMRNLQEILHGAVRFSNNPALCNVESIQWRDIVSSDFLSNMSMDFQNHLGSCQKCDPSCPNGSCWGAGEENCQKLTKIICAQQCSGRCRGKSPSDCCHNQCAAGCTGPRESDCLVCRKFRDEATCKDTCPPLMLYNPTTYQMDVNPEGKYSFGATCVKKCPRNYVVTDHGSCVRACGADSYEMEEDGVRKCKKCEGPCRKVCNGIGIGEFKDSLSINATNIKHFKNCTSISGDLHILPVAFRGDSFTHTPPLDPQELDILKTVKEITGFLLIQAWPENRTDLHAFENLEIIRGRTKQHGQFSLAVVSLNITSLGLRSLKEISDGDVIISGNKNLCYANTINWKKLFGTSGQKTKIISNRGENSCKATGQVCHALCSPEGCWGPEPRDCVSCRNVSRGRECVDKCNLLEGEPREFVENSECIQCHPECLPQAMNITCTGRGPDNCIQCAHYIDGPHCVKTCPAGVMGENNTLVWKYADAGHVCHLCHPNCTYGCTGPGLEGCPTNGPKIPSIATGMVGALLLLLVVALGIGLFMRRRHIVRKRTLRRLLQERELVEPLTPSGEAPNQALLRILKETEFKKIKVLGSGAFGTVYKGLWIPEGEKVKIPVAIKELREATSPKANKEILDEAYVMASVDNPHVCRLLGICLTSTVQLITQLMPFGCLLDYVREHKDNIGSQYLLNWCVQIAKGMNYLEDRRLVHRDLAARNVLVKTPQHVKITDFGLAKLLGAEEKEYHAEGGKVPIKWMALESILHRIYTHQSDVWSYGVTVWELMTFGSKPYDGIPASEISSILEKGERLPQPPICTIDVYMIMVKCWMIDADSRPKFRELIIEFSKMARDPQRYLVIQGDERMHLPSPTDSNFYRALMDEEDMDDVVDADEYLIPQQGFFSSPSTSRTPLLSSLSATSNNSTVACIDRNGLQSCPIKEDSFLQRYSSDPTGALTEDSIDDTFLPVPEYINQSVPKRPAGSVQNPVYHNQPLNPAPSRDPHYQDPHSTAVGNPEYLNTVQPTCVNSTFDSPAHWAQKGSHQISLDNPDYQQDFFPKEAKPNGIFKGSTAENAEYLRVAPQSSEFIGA

[9] = system: HepG2; experiment: Induction of morphological changes in human HepG2 cells assessed as cell shrinkage at 0.47 uM by acridine orange dye based inverted microscopy and fluorescence microscopic method; type: functional
[10] = system: HepG2; experiment: Induction of morphological changes in human HepG2 cells assessed as chromatin condensation at 0.47 uM by acridine orange dye based inverted microscopy and fluorescence microscopic method; type: functional, cell-based
[11] = system: HepG2; experiment: Induction of apoptosis in human HepG2 cells by Annexin V-FITC/propidium iodide staining based flow cytometry; type: functional, cell-based
[12] = system: HepG2; experiment: Induction of apoptosis in human HepG2 cells assessed as live cells at 0.23 uM by Annexin V-FITC/propidium iodide staining based flow cytometry (reference value: 96.54%); type: functional
[13] = system: HepG2; experiment: Induction of apoptosis in human HepG2 cells assessed as early apoptotic cells at 0.23 uM by Annexin V-FITC/propidium iodide staining based flow cytometry (reference value: 1.11%); type: functional
[14] = system: HepG2; experiment: Induction of apoptosis in human HepG2 cells assessed as late apoptotic cells at 0.23 uM by Annexin V-FITC/propidium iodide staining based flow cytometry (reference value: 2.07%); type: functional
[15] = system: HepG2; experiment: Induction of apoptosis in human HepG2 cells assessed as necrotic cells at 0.23 uM by Annexin V-FITC/propidium iodide staining based flow cytometry (reference value: 0.28%); type: functional
[16] = system: HepG2; experiment: Induction of apoptosis in human HepG2 cells assessed as live cells at 0.47 uM by Annexin V-FITC/propidium iodide staining based flow cytometry (reference value: 96.54%); type: functional
[17] = system: HepG2; experiment: Induction of apoptosis in human HepG2 cells assessed as early apoptotic cells at 0.47 uM by Annexin V-FITC/propidium iodide staining based flow cytometry (reference value: 1.11%); type: functional
[18] = system: HepG2; experiment: Induction of apoptosis in human HepG2 cells assessed as late apoptotic cells at 0.47 uM by Annexin V-FITC/propidium iodide staining based flow cytometry (reference value: 2.07%); type: functional
[19] = system: HepG2; experiment: Induction of apoptosis in human HepG2 cells assessed as necrotic cells at 0.47 uM by Annexin V-FITC/propidium iodide staining based flow cytometry (reference value: 0.28%); type: functional
[20] = system: HepG2; experiment: Induction of apoptosis in human HepG2 cells assessed as live cells at 0.94 uM by Annexin V-FITC/propidium iodide staining based flow cytometry (reference value: 96.54%); type: functional
[21] = system: HepG2; experiment: Induction of apoptosis in human HepG2 cells assessed as early apoptotic cells at 0.94 uM by Annexin V-FITC/propidium iodide staining based flow cytometry (reference value: 1.11%); type: functional
[22] = system: HepG2; experiment: Induction of apoptosis in human HepG2 cells assessed as late apoptotic cells at 0.94 uM by Annexin V-FITC/propidium iodide staining based flow cytometry (reference value: 2.07%); type: functional
[23] = system: HepG2; experiment: Induction of apoptosis in human HepG2 cells assessed as necrotic cells at 0.94 uM by Annexin V-FITC/propidium iodide staining based flow cytometry (reference value: 0.28%); type: functional
[24] = system: HepG2; experiment: cells; conditions: Homo sapiens, HepG2, 72 h
Description: Cytotoxicity against human HepG2 cells after 72 hrs by MTT assay

[25] = system: MCF7; experiment: cells; conditions: Homo sapiens, MCF7, 72 h
Description: Cytotoxicity against human MCF7 cells after 72 hrs by MTT assay

Cc1cc(=O)n(-c2ccc(F)cc2)nc1C(=O)Nc1ccc(Oc2ncnc3ccsc23)c(F)c1 was tested, and the IC50 [1] was 580 nM, the “Ratio IC50” value [2] was 3.73 - 5.39 and the “Ratio IC50” value [3] was 3.73 - 5.39. The IC50 [4] was 19 nM, the IC50 [5] was 950 nM and the IC50 [6] was 450 nM. The IC50 [7] was 3700 nM, the IC50 [8] was 6900 nM and the Activity [9] was “Active”. The Activity [10] was “Active”, the Activity [11] was “Dose-dependent effect” and the Activity [12] was 84.11%. The Activity [13] was 8.08%, the Activity [14] was 6.54% and the Activity [15] was 1.28%. For the same molecule, the Activity [16] was 72.36%, the Activity [17] was 16.09% and the Activity [18] was 10.3%. It also gave an Activity [19] of 1.25%, an Activity [20] of 62.8% and an Activity [21] of 13.9%. For the same molecule, the Activity [22] was 21%, the Activity [23] was 2.31% and the IC50 [24] was 470 nM. For the same molecule, the IC50 [25] was 740 nM.
